Read-outs that look alike come from different tables or passages of the source.
Columns and labels:
[1] = target: T1, hGPR65 (Homo sapiens, UniProt Q8IYL9); test: cAMP detection in HeLa expression cell line, hGPR65; type: cell-based; settings: for Emax: HeLa, read-out: hGPR Max Activity %; for cAMP production relative to BRD2813, hGPR65: pH 7.2
T1 construct: expressed in transfected cells; host or cells: HeLa (ATCC CCL-2), lentiviral transduction, pLX317
Protocol: (§1) HeLa stable expression cell lines were produced by lentiviral transduction. Briefly, lentiviral plasmids for each GPCR with a C-terminal V5 Tag ([…]) were made in a pLX317 backbone using competent Escherichia coli (New England Biolabs, C3050H). Lenti-X 293 T (Takara, 632810) cells were transfected with the lentiviral plasmids to produce virus. Low-passage HeLa cells (American Type Culture Collection, CCL-2) were then transduced with lentivirus. After 48 hours, HeLa cells were cultured under selection with puromycin (3 μg/ml) and allowed to recover and expand before storing stocks in liquid nitrogen.
(§2) cAMP was measured in cells using the Lance Ultra cAMP Kit. HeLa cells were cultured under puromycin (3 μg/ml) selection. One day before the experiment, cells were seeded in T75 flasks and allowed to adhere overnight. On the day of the experiment, cells were washed twice with Dulbecco’s PBS and lifted using prewarmed 1× versene solution (Gibco, 15040066). Cells were counted in HBSS (Gibco, 14025092) and then resuspended in stimulation buffer prepared according to the manufacturer’s instructions and adjusted to pH 7.2 using 1 M sodium hydroxide. Cells were added to the plate at a density of 1500 cells per well in white opaque 384-well assay ready microplates containing 100 nl of 10 mM compound in DMSO. Cells were stimulated for 30 min at RT, then lysed and incubated with detection reagents for 1 hour in the dark at RT. Plates were read on BMG Labtech PHERAstar FSX (excitation, 337 nm; emission, 620 and 665 nm). Data analysis was performed using GraphPad Prism.

[2] = target: T2, mGPR65 (Mus musculus, UniProt Q61038); test: cAMP detection in HeLa expression cell line, mGPR65; type: cell-based; settings: for Emax: HeLa, read-out: mGPR Max Activity %; for Emax / mGPR Max Activity: relative to 100uM forskolin (100%) and DMSO (0%); for cAMP production relative to BRD2813, mGPR65: pH 7.2
T2 construct: expressed in transfected cells; host or cells: HeLa (ATCC CCL-2), lentiviral transduction, pLX317
T2 sequence (Q61038 whole entry): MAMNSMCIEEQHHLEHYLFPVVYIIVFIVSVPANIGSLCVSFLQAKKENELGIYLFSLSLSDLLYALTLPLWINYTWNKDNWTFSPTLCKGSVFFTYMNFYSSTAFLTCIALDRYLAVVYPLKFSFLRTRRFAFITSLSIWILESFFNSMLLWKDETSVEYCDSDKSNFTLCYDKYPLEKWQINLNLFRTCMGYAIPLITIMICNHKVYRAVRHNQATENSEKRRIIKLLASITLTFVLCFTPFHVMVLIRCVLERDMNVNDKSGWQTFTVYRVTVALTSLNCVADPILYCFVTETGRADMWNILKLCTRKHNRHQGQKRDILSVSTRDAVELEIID
Protocol: as §1, §2

[3] = 1st hGPR column pair, NA = no activity, read-out: hGPR EC50
[4] = 2nd hGPR column pair, NA = no activity, read-out: hGPR EC50
[5] = 1st hGPR column pair, relative to 100uM forskolin (100%) and DMSO (0%), NA = no activity
[6] = 2nd hGPR column pair, relative to 100uM forskolin (100%) and DMSO (0%), NA = no activity
[7] = 1st mGPR column pair, NA = no activity, read-out: mGPR EC50
[8] = 2nd mGPR column pair, NA = no activity, read-out: mGPR EC50
[9] = 2nd mGPR column pair, NA = no activity
[10] = first pair, relative to 100uM forskolin (100%) and DMSO (0%)
[11] = SAR cAMP assay, first EC50/Max pair of hGPR columns, read-out: hGPR EC50
[12] = 3rd mGPR column pair, NA = no activity, read-out: mGPR EC50
[13] = SAR cAMP assay, first EC50/Max pair, read-out: mGPR EC50
[14] = hGPR EC50 (uM), NA = no activity
[15] = mGPR EC50 (uM), 2nd mGPR column pair, NA = no activity
[16] = mGPR EC50 (uM), NA = no activity

T1 sequence (Q8IYL9 whole entry): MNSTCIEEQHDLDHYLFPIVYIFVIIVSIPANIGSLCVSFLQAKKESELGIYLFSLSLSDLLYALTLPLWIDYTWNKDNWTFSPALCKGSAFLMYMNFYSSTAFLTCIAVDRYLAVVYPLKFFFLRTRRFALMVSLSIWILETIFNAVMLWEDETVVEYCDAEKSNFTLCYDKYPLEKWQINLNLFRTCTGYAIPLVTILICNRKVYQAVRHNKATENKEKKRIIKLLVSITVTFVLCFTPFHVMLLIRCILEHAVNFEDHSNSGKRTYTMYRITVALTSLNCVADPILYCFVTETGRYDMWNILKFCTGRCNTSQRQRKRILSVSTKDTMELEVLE

SMILES | EC50 [1, 3] | EC50 [1, 4] | Emax [1, 5] | Emax [1, 6] | EC50 [2, 7] | EC50 [2, 8] | Emax [2, 9] | Emax ([2]; NA = no activity) | other results
COCc1ccc(-c2cc(O)n3ncc(C(=O)Nc4ccc(C(=O)OC)cc4)c3n2)cc1 [BRD0592] | 1.27 µM | 1.25 µM | 68.9% | 68.2% | 0.82 µM | 0.563 µM | 57% | 64.1% | 
Cc1ccc(NC(=O)c2cnn3c(O)cc(-c4ccc(-c5ccccc5O)cc4)nc23)cc1 [BRD1689] | 3.57 µM | 5.62 µM | 79% | 74.3% | 1.58 µM | 2.04 µM | 45.5% | 54% | 
Cc1ccc(NC(=O)c2cnn3c(O)cc(-c4ccc(F)cc4)nc23)cc1 [BRD1827] | 0.635 µM | 0.963 µM | 78% | 77.5% | 1.37 µM | 1.29 µM | 43.8% | 43.6% | 
COCc1ccc(-c2cc(O)n3ncc(C(=O)Nc4ccc(C(=O)N(C)C)cc4)c3n2)cc1 [BRD1926] | 34.1 µM |  | 11% |  | 21.5 µM |  |  | 28.4% | 
COCc1ccc(-c2cc(O)n3ncc(C(=O)Nc4cccc(C)c4)c3n2)cc1 [BRD1946] | 4.89 µM | 4.97 µM | 80.4% | 76.2% | 0.501 µM | 1.51 µM | 57.2% | 63.6% | 
Cc1ccc(NC(=O)c2cnn3c(O)cc(-c4ccc(Cl)cc4)nc23)cc1 [BRD2007] | 0.409 µM | 0.247 µM | 79.1% | 81.4% | 0.644 µM | 0.64 µM | 22.7% | 24.9% | 
COCc1ccc(-c2cc(OC)n3ncc(C(=O)Nc4ccc(C)cc4)c3n2)cc1 [BRD2344] |  |  |  |  | 0.737 µM |  |  | 4.13% | 
COCc1ccc(-c2cc(O)n3nccc3n2)cc1 [BRD2453] | 18.6 µM |  | 11.7% |  |  |  |  |  | 
Cc1ccc(NC(=O)c2cnn3c(O)cc(Cc4c[nH]c5ccccc45)nc23)cc1 [BRD2917] |  |  |  |  | 18.9 µM |  |  | 7.25% | 
Cc1ccc(NC(=O)c2cnn3c(O)cc(-c4ccc(Oc5ccccc5)cc4)nc23)cc1 [BRD3067] |  |  |  |  |  |  |  |  | Emax [1, 10]: 36.3%; EC50 [1, 11]: 11.1 µM
COCc1ccc(-c2cc(O)n3ncc(C(=O)N4CCS(=O)(=O)CC4)c3n2)cc1 [BRD3128] | 11 µM |  | 3.44% |  |  |  |  |  | 
COCc1ccc(-c2cc(O)n3ncc(C(=O)Nc4ccc(F)cc4)c3n2)cc1 [BRD3674] | 27.9 µM |  | 43.3% |  |  | 4.12 µM | 7.69% |  | 
COCc1ccc(-c2cc(O)n3ncc(C(=O)NCc4ccc(C)cc4)c3n2)cc1 [BRD4305] |  |  |  |  | 2.31 µM | 1.44 µM | 36.9% | 67.8% | EC50 [2, 12]: 1.07 µM; mGPR Max Activity ([2]; NA = no activity): 60.85%
Cc1ccc(NC(=O)c2cnn3c(O)cc(-c4ccc(-c5ccc(O)cc5)cc4)nc23)cc1 [BRD4475] |  |  |  |  |  |  |  |  | Emax [1, 10]: 22.6%; EC50 [1, 11]: 10.6 µM; Emax ([2]; first pair): 30.5%; EC50 [2, 13]: 1.66 µM
Cc1ccc(NC(=O)c2cnn3c(O)cc(C(C)Cn4nccc4C)nc23)cc1 (stereo not drawn) [BRD4822] |  |  |  |  | 2.82 µM | 4.33 µM | 25.4% | 42% | EC50 [2, 12]: 1.19 µM; mGPR Max Activity ([2]; NA = no activity): 35.73%
COc1cc(-c2cc(O)n3ncc(C(=O)Nc4ccc(C)cc4)c3n2)ccc1Cl [BRD5061] | 0.942 µM | 1.57 µM | 72.2% | 60.5% | 0.794 µM |  | 20.1% | 23.4% | 
Cc1ccc(NC(=O)c2cnn3c(O)cc(-c4ccc(N5CCOCC5)nc4)nc23)cc1 [BRD5064] | 5.02 µM | 28.4 µM | 56.7% | 100% | 3.41 µM | 4.29 µM | 33.9% | 37.4% | 

SMILES | EC50 [1, 3] | EC50 [1, 4] | Emax [1, 5] | Emax [1, 6] | EC50 [2, 7] | EC50 [2, 8] | Emax [2, 9] | Emax ([2]; NA = no activity) | other results
Cc1ccc(NC(=O)c2cnn3c(O)cc(-c4cnc(N5CCOCC5)c(Cl)c4)nc23)cc1 [BRD5065] | 2.39 µM | 1.87 µM | 49.7% | 39.5% | 0.513 µM | 1.16 µM | 51.8% | 56.5% | 
Cc1ccc(NC(=O)c2cnn3c(O)cc(-c4ccc(N5CCN(C)CC5)c(Cl)c4)nc23)cc1 [BRD5068] | 1.76 µM | 2.82 µM | 53.1% | 36.9% | 0.613 µM | 1.04 µM | 66.5% | 71% | 
CC(C)OCc1ccc(-c2cc(O)n3ncc(C(=O)Nc4ccccn4)c3n2)cc1 [BRD5074] | 7.02 µM | 8.96 µM | 84.1% | 75.9% | 9.32 µM |  |  | 78% | 
Cc1cnc(NC(=O)c2cnn3c(O)cc(-c4ccc(COC(C)C)cc4)nc23)nc1 [BRD5076] | 2 µM | 1.64 µM | 72.4% | 69.9% | 1.14 µM | 1.8 µM | 56.3% | 59.9% | 
Cc1ccc(NC(=O)c2cnn3c(O)cc(-c4ccc(C(=O)NC(C)C)cc4)nc23)cc1 [BRD5085] | 2.75 µM | 2.82 µM | 46.6% | 31.2% | 0.441 µM | 4.17 µM | 32.7% | 98.4% | 
COCc1ccc(-c2cc(O)n3ncc(C(=O)Nc4ccc(OC)cc4)c3n2)cc1 [BRD5326] |  |  | 83% | 82.7% |  |  | 55.6% | 56.3% | EC50 [1, 14]: 1.26 µM; EC50 ([1]; hGPR EC50, NA = no activity): 0.903 µM; cAMP production relative to BRD2813, hGPR65 [1]: little effect on cAMP production; EC50 [2, 15]: 1.26 µM; EC50 [2, 16]: 1.27 µM; cAMP production relative to BRD2813, mGPR65 [2]: slight improvement in mGPR65 activity
COc1cccc(Cc2cc(O)n3ncc(C(=O)Nc4ccc(C)cc4)c3n2)c1 [BRD5386] |  |  |  |  | 2.01 µM | 2.17 µM | 16.4% | 39.5% | EC50 ([1]; NA = no activity, read-out: hGPR EC50): 1.96 µM; hGPR Max Activity ([1]; relative to 100uM forskolin (100%) and DMSO (0%), NA = no activity): 4.575%; EC50 [2, 12]: 0.425 µM; mGPR Max Activity ([2]; NA = no activity): 21.71%
Cc1[nH]c2ccccc2c1Cc1cc(O)n2ncc(C(=O)Nc3ccccc3)c2n1 [BRD5828] |  |  |  |  | 0.649 µM | 0.785 µM | 18.4% | 25.8% | 
Cc1ccc(NC(=O)c2cnn3c(O)cc(CCc4c(C)n[nH]c4C)nc23)cc1 [BRD5908] |  |  |  |  | 33 µM |  |  | 22.1% | 
Cc1ccc(NC(=O)c2cnn3c(O)cc(-c4ccc(COC(C)C)cc4)nc23)cc1 [BRD5928] |  |  | 82.5% | 80% |  |  | 54.1% | 61.1% | EC50 [1, 14]: 0.271 µM; EC50 ([1]; hGPR EC50, NA = no activity): 0.629 µM; cAMP production relative to BRD2813, hGPR65 [1]: induced high hGPR65 activity; EC50 [2, 15]: 0.494 µM; EC50 [2, 16]: 0.635 µM; cAMP production relative to BRD2813, mGPR65 [2]: substantially increasing cAMP production
COc1ccc(-c2ccn3ncc(C(=O)Nc4ccc(C)cc4)c3n2)cc1 [BRD6737] | 0.0844 µM |  | 7.95% |  |  |  |  |  | 
COc1cccc(Cc2cc(O)n3ncc(C(=O)Nc4ccccc4)c3n2)c1 [BRD7897] |  |  |  |  | 6.48 µM |  |  | ~22.7% | 
Cc1ccc(NC(=O)c2cnn3c(O)cc(-c4ccc(-c5ccc(C(C)C)cc5)cc4)nc23)cc1 [BRD7984] |  |  |  |  |  |  |  |  | Emax ([2]; first pair): 12.4%; EC50 [2, 13]: 0.11 µM
Cc1ccc(NC(=O)c2cnn3c(O)cc(-c4ccc(N5CCCN(C)CC5)cc4)nc23)cc1 [BRD8425] |  |  |  |  |  |  |  |  | Emax ([2]; first pair): 65.4%
Cc1ccc(NC(=O)c2cnn3c(O)cc(CCc4c(C)noc4C)nc23)cc1 [BRD8568] | 3.06 µM |  | 3.77% |  |  |  |  |  | 
CCN1CC(c2cc(O)n3ncc(C(=O)Nc4ccc(Cl)cc4)c3n2)CC1=O (stereo not drawn) [BRD8856] |  |  |  |  | 0.662 µM |  |  | 10.9% | 
CCOC(=O)c1cnn2c(O)cc(C)nc12 [BRD9804] | 77.6 µM |  | 5.41% |  |  |  |  |  | 
